pIC50: −log10 of the molar value.
The compounds below were run on HIV-1 (H9/IIIB strain) (assay: Multiple round HIV-1 infection assay in MT4-GFP cells (wild type cell assay, Viking)). Details: 0% NHS condition; MT4-GFP cells infected with HIV-1 H9/IIIB; inhibition of reproductive ratio R0, ~48 h and ~72 h post-infection; read-out: WILD TYPE CELL ASSAY Viking IP (0% NHS).
Assay type: cell-based
Procedure: Assessing Antiviral Potency in a Multiple Round HIV-1 Infection Assay
The antiviral activity of the Examples herein was assessed in an assay that measures the rate of replication of HIV in cell culture, and performed according to the following procedure. HIV-1 replication was monitored using MT4-gag-GFP clone D3 (hereafter designated MT4-GFP), which are MT-4 cells modified to harbor a GFP reporter gene, the expression of which is dependent on the HIV-1 expressed proteins tat and rev. Productive infection of an MT4-GFP cell with HIV-1 results in GFP expression approximately 24 h post-infection. MT4-GFP cells were maintained at 37° C./5% CO2/90% relative humidity in RPMI 1640 supplemented with 10% fetal bovine serum, 100 U/ml penicillin/streptomycin, and 400 μg/ml G418 to maintain the reporter gene. For infections, MT4-GFP cells were placed in the same medium lacking G418 and infected overnight with HIV-1 (H9/IIIB strain) virus at an approximate multiplicity of infection of 0.01 in the same incubation conditions. Cells were then washed and re-suspended in either RPMI 1640 at 2×10^5 cells/mL (0% NHS condition) or 100% normal human serum (NHS) at 2×10^5 cells/mL (100% NHS condition). Compound plates were prepared by dispensing compounds dissolved in DMSO into wells of 384 well poly-D-lysine-coated plates (0.2 μl/well) using an ECHO acoustic dispenser. Each compound was tested in a 10-point serial 3-fold dilution (typical final concentrations: 1050 nM-0.05 nM for 0% NHS condition or […]-2.13 nM for 100% NHS condition). Controls included no inhibitor (DMSO only) and a combination of three antiviral agents (efavirenz, indinavir, an in-house integrase strand transfer inhibitor at final concentrations of […] each). Cells were added ([…]) to compound plates and the infected cells were maintained at 37° C./5% CO2/90% relative humidity.
Infected cells were quantified at two time points, ˜48 h and ˜72 h post-infection, by counting the number of green cells in each well using an Acumen eX3 scanner. The increase in the number of green cells over ˜24 h period gives the reproductive ratio, RO, which is typically 5-15 and has been shown experimentally to be in logarithmic phase (data not shown). Inhibition of R0 is calculated for each well, and IC50s determined by non-linear 4-parameter curve fitting.

First: CC1N(C)C(=O)c2c(O)c(=O)c(C(=O)NCc3ccc(F)cc3F)c3n2N1CC3O (single isomer, unassigned) [Compound 14]
Second: CCC1N(C)C(=O)c2c(O)c(=O)c(C(=O)NCc3ccc(F)cc3F)c3n2N1CC3O (single isomer, unassigned) [Compound 29]
The pIC50 of the first is 0.27 log units lower: 8.85 for the first, 9.12 for the second. The second is the more potent here.

Compared with `CC1N(C)C(=O)c2c(O)c(=O)c(C(=O)NCc3c(F)cc(F)cc3F)c3n2N1CC3O` (single isomer, unassigned) [Compound 18], `CCC1N(C)C(=O)c2c(O)c(=O)c(C(=O)NCc3c(F)cc(F)cc3F)c3n2N1CC3O` (single isomer, unassigned) [Compound 34] is 0.25 log units lower in pIC50: 8.80 for the first, 8.55 for the second.

`CC1N(C)C(=O)c2c(O)c(=O)c(C(=O)NCc3c(F)ccc(F)c3F)c3n2N1CC3O` (single isomer, unassigned) [Compound 22] and `CCN1C(=O)c2c(O)c(=O)c(C(=O)NCc3c(F)ccc(F)c3F)c3n2N(CC3O)C1C` (single isomer, unassigned) [Compound 82] are within 0.2 log units of each other in pIC50: 8.64 for the first, 8.66 for the second.

Compared with `CCC1N(C)C(=O)c2c(O)c(=O)c(C(=O)NCc3c(F)ccc(Cl)c3F)c3n2N1CC3O` (single isomer, unassigned) [Compound 26], `CCN1C(=O)c2c(O)c(=O)c(C(=O)NCc3c(F)ccc(Cl)c3F)c3n2N(CC3O)C1C` (single isomer, unassigned) [Compound 70] is 0.27 log units higher in pIC50: 8.47 for the first, 8.74 for the second. The second is the more potent here.

`CCC1N(C)C(=O)c2c(O)c(=O)c(C(=O)NCc3ccc(F)cc3F)c3n2N1CC3O` (single isomer, unassigned) [Compound 30] and `CC1N(C)C(=O)c2c(O)c(=O)c(C(=O)NCc3ccc(F)cc3F)c3n2N1CC3O` (stereo not drawn) [Compound 16] are within 0.2 log units of each other in pIC50: 8.80 for the first, 8.72 for the second.

First: CCN1C(=O)c2c(O)c(=O)c(C(=O)NCc3ccc(C(F)F)cc3)c3n2N(CC3O)C1C (single isomer, unassigned) [Compound 74]
Second: CCN1C(=O)c2c(O)c(=O)c(C(=O)NCc3ccc(F)cc3)c3n2N(CC3O)C1C (single isomer, unassigned) [Compound 86]
The pIC50 of the first is 1.71 log units lower: 7.18 for the first, 8.89 for the second. The second is the more potent here.

Compared with `CCN1C(=O)c2c(O)c(=O)c(C(=O)NCc3ccc(C(F)(F)F)cc3)c3n2N(CC3O)C1C` (single isomer, unassigned) [Compound 77], `CCN1C(=O)c2c(O)c(=O)c(C(=O)NCc3ccc(F)cc3F)c3n2N(CC3O)C1C` (single isomer, unassigned) [Compound 90] is 2.13 log units higher in pIC50: 6.59 for the first, 8.72 for the second.

Going from `CCN1C(=O)c2c(O)c(=O)c(C(=O)NCc3ccc(C(F)(F)F)cc3)c3n2N(CC3O)C1C` (single isomer, unassigned) [Compound 78] to `CN1CN2CC(O)c3c(C(=O)NCc4ccc(F)cc4)c(=O)c(O)c(n32)C1=O` (stereo not drawn) [Compound 6], the pIC50 rises from 7.06 to 8.52 (1.46 log units). The second is the more potent here.

Compared with `CN1C(=O)c2c(O)c(=O)c(C(=O)NCc3ccc(F)cc3F)c3n2N(CC3O)C12CCOC2` (single isomer, unassigned) [Compound 112], `CN1C(=O)c2c(O)c(=O)c(C(=O)NCc3c(F)ccc(Cl)c3F)c3n2N(CC3O)C12CCOC2` (single isomer, unassigned) [Compound 116] is 0.26 log units lower in pIC50: 8.77 for the first, 8.51 for the second.

Going from `CN1CN2CC(O)c3c(C(=O)NCc4ccc(F)cc4F)c(=O)c(O)c(n32)C1=O` (stereo not drawn) [Compound 4] to `CN1CN2CC(O)c3c(C(=O)NCc4c(F)ccc(Cl)c4F)c(=O)c(O)c(n32)C1=O` (stereo not drawn) [Compound 8], the pIC50 rises from 8.46 to 8.72 (0.26 log units). The second is the more potent here.

`CC1N(C)C(=O)c2c(O)c(=O)c(C(=O)NCc3c(F)cc(F)cc3F)c3n2N1CC3O` (stereo not drawn) [Compound 20] and `CCC1N(C)C(=O)c2c(O)c(=O)c(C(=O)NCc3c(F)cc(F)cc3F)c3n2N1CC3O` (stereo not drawn) [Compound 36] are within 0.2 log units of each other in pIC50: 8.77 for the first, 8.82 for the second.

First: CC1N(C)C(=O)c2c(O)c(=O)c(C(=O)NCc3c(F)ccc(F)c3F)c3n2N1CC3O (stereo not drawn) [Compound 24]
Second: CCC1N(C)C(=O)c2c(O)c(=O)c(C(=O)NCc3c(F)ccc(Cl)c3F)c3n2N1CC3O (stereo not drawn) [Compound 28]
The pIC50 of the first is 0.34 log units higher: 8.82 for the first, 8.48 for the second.

`CCC1N(C)C(=O)c2c(O)c(=O)c(C(=O)NCc3ccc(F)cc3F)c3n2N1CC3O` (stereo not drawn) [Compound 32] and `COCCN1CN2CC(O)c3c(C(=O)NCc4ccc(F)c(Cl)c4F)c(=O)c(O)c(n32)C1=O` (stereo not drawn) [Compound 40] are within 0.2 log units of each other in pIC50: 8.60 for the first, 8.68 for the second.

First: COCCN1CN2CC(O)c3c(C(=O)NCc4cccc(Cl)c4F)c(=O)c(O)c(n32)C1=O (stereo not drawn) [Compound 42]
Second: COCCN1CN2CC(O)c3c(C(=O)NCc4c(F)ccc(Cl)c4F)c(=O)c(O)c(n32)C1=O (stereo not drawn) [Compound 44]
The pIC50 of the first is 0.21 log units higher: 8.72 for the first, 8.51 for the second. The first is the more potent here.

In the case of `COCCN1CN2CC(O)c3c(C(=O)NCc4c(F)cc(F)cc4F)c(=O)c(O)c(n32)C1=O` (stereo not drawn) [Compound 46], the pIC50 was 8.43.

Same assay, conditions: Human immunodeficiency virus 1, IIIB, 0% NHS condition; MT4-GFP cells infected with HIV-1 H9/IIIB; inhibition of reproductive ratio R0, ~48 h and ~72 h post-infection; read-out: WILD TYPE CELL ASSAY Viking IP (0% NHS)

`CC1N(C)C(=O)c2c(O)c(=O)c(C(=O)NCc3ccc(F)cc3F)c3n2N1CC3O` (single isomer, unassigned) [Compound 13] and `CCN1C(=O)c2c(O)c(=O)c(C(=O)NCc3ccc(F)cc3F)c3n2N(CC3O)C1C` (single isomer, unassigned) [Compound 89] are within 0.2 log units of each other in pIC50: 8.77 for the first, 8.72 for the second.

`CC1N(C)C(=O)c2c(O)c(=O)c(C(=O)NCc3c(F)cc(F)cc3F)c3n2N1CC3O` (single isomer, unassigned) [Compound 17] and `CCC1N(C)C(=O)c2c(O)c(=O)c(C(=O)NCc3c(F)cc(F)cc3F)c3n2N1CC3O` (single isomer, unassigned) [Compound 33] are within 0.2 log units of each other in pIC50: 8.82 for the first, 8.85 for the second.

Compared with `CC1N(C)C(=O)c2c(O)c(=O)c(C(=O)NCc3c(F)ccc(F)c3F)c3n2N1CC3O` (single isomer, unassigned) [Compound 21], `CCN1C(=O)c2c(O)c(=O)c(C(=O)NCc3c(F)ccc(F)c3F)c3n2N(CC3O)C1C` (single isomer, unassigned) [Compound 81] is 0.30 log units lower in pIC50: 8.85 for the first, 8.55 for the second. The first is the more potent here.

`CCC1N(C)C(=O)c2c(O)c(=O)c(C(=O)NCc3c(F)ccc(Cl)c3F)c3n2N1CC3O` (single isomer, unassigned) [Compound 25] and `CCN1C(=O)c2c(O)c(=O)c(C(=O)NCc3c(F)ccc(Cl)c3F)c3n2N(CC3O)C1C` (single isomer, unassigned) [Compound 69] are within 0.2 log units of each other in pIC50: 8.70 for the first, 8.72 for the second.

First: CCN1C(=O)c2c(O)c(=O)c(C(=O)NCc3ccc(C(F)F)cc3)c3n2N(CC3O)C1C (single isomer, unassigned) [Compound 73]
Second: CCN1C(=O)c2c(O)c(=O)c(C(=O)NCc3ccc(F)cc3)c3n2N(CC3O)C1C (single isomer, unassigned) [Compound 85]
The pIC50 of the first is 1.49 log units lower: 7.10 for the first, 8.59 for the second. The second is the more potent here.

`CN1C(=O)c2c(O)c(=O)c(C(=O)NCc3ccc(F)cc3F)c3n2N(CC3O)C12CCOC2` (single isomer, unassigned) [Compound 111] and `CN1C(=O)c2c(O)c(=O)c(C(=O)NCc3c(F)ccc(Cl)c3F)c3n2N(CC3O)C12CCOC2` (single isomer, unassigned) [Compound 115] are within 0.2 log units of each other in pIC50: 8.68 for the first, 8.70 for the second.

`CN1CN2CC(O)c3c(C(=O)NCc4ccc(F)cc4F)c(=O)c(O)c(n32)C1=O` (stereo not drawn) [Compound 3] and `CC1N(C)C(=O)c2c(O)c(=O)c(C(=O)NCc3ccc(F)cc3F)c3n2N1CC3O` (stereo not drawn) [Compound 15] are within 0.2 log units of each other in pIC50: 8.49 for the first, 8.59 for the second.

Compared with `CN1CN2CC(O)c3c(C(=O)NCc4ccc(F)cc4)c(=O)c(O)c(n32)C1=O` (stereo not drawn) [Compound 5], `CN1CN2CC(O)c3c(C(=O)NCc4c(F)ccc(Cl)c4F)c(=O)c(O)c(n32)C1=O` (stereo not drawn) [Compound 7] is 0.34 log units higher in pIC50: 8.46 for the first, 8.80 for the second. The second is the more potent here.

`CC1N(C)C(=O)c2c(O)c(=O)c(C(=O)NCc3c(F)cc(F)cc3F)c3n2N1CC3O` (stereo not drawn) [Compound 19] and `CCC1N(C)C(=O)c2c(O)c(=O)c(C(=O)NCc3c(F)cc(F)cc3F)c3n2N1CC3O` (stereo not drawn) [Compound 35] are within 0.2 log units of each other in pIC50: 8.57 for the first, 8.68 for the second.

`CC1N(C)C(=O)c2c(O)c(=O)c(C(=O)NCc3c(F)ccc(F)c3F)c3n2N1CC3O` (stereo not drawn) [Compound 23] and `CCC1N(C)C(=O)c2c(O)c(=O)c(C(=O)NCc3c(F)ccc(Cl)c3F)c3n2N1CC3O` (stereo not drawn) [Compound 27] are within 0.2 log units of each other in pIC50: 8.64 for the first, 8.54 for the second.

First: CCC1N(C)C(=O)c2c(O)c(=O)c(C(=O)NCc3ccc(F)cc3F)c3n2N1CC3O (stereo not drawn) [Compound 31]
Second: COCCN1CN2CC(O)c3c(C(=O)NCc4ccc(F)c(Cl)c4F)c(=O)c(O)c(n32)C1=O (stereo not drawn) [Compound 39]
The pIC50 of the first is 0.35 log units lower: 8.31 for the first, 8.66 for the second.

`COCCN1CN2CC(O)c3c(C(=O)NCc4cccc(Cl)c4F)c(=O)c(O)c(n32)C1=O` (stereo not drawn) [Compound 41] and `COCCN1CN2CC(O)c3c(C(=O)NCc4c(F)ccc(Cl)c4F)c(=O)c(O)c(n32)C1=O` (stereo not drawn) [Compound 43] are within 0.2 log units of each other in pIC50: 8.55 for the first, 8.47 for the second.

`COCCN1CN2CC(O)c3c(C(=O)NCc4c(F)cc(F)cc4F)c(=O)c(O)c(n32)C1=O` (stereo not drawn) [Compound 45] gave a pIC50 of 8.60.
